The structures appear in SMILES notation.

A short description of the data set: in vitro. The following applies: human, hek293t cells.
Broadly, the viability is a read-out of living cells in per cent, often relative to untreated cells. As to `C=CC(=O)Nc1cccc(-c2nnnn2C(C)C)c1` [1-A16, N-{3-[1-(propan-2-yl)-1H-1,2,3,4-tetrazol-5-yl]phenyl}prop-2-enamide], the viability at 48 h, 25 µM came out at 98.3%. Consider `O=C(CCl)NCc1ccccc1[N+](=O)[O-]` [6-A22, 2-chloro-N-[(2-nitrophenyl)methyl]acetamide], for which the viability at 48 h, 25 µM came to 0.388%. With `C=CC(=O)N1CCOCC2(COCCN2C)C1` (centres unmarked) [3-J14, 1-{1-methyl-4,8-dioxa-1,11-diazaspiro[5.6]dodecan-11-yl}prop-2-en-1-one], the viability at 48 h, 25 µM was determined as 96%.

Take `Cc1ccc(C=C(C#N)C(=O)Nc2ccc(C(=O)O)cc2)s1` [8-E04, 4-[2-cyano-3-(5-methylthiophen-2-yl)prop-2-enamido]benzoic acid]: the viability at 48 h, 25 µM is 91.5%.

With `C=CC(=O)Nc1ccc(N2CCN(CC)CC2)cc1` [1-D12, N-[4-(4-ethylpiperazin-1-yl)phenyl]prop-2-enamide], the viability at 48 h, 25 µM came to 77.2%. `COc1cccc(NC(=O)C(C#N)=Cc2c[nH]c(-c3ccccc3)n2)c1` [9-C20, 2-cyano-N-(3-methoxyphenyl)-3-(2-phenyl-1H-imidazol-4-yl)prop-2-enamide]: the viability at 48 h, 25 µM was determined as 108%. As for `Cc1nn(-c2ccccc2)c(C)c1CNC(=O)CCl` [6-I08, 2-chloro-N-[(3,5-dimethyl-1-phenyl-1H-pyrazol-4-yl)methyl]acetamide], the figure is 2.35%; as for `CC(Cl)C(=O)Nc1ccc(C(C)(C)C)cc1` (centres unmarked) [4-G12, N-(4-tert-butylphenyl)-2-chloropropanamide], 66.1%; as for `C=CC(=O)N1CCCC(CNC(C)=O)C1` (centres unmarked) [3-E15, N-{[1-(prop-2-enoyl)piperidin-3-yl]methyl}acetamide], 46.4%.

With `C=CC(=O)N1CCC(c2ccc(OC)c(F)c2)C1` (centres unmarked) [3-K19, 1-[3-(3-fluoro-4-methoxyphenyl)pyrrolidin-1-yl]prop-2-en-1-one], the viability at 48 h, 25 µM was determined as 48.9%. On to `O=C(CCl)NSc1ccc([N+](=O)[O-])cc1` [4-P13, 2-chloro-N-[(4-nitrophenyl)sulfanyl]acetamide], for which the viability at 48 h, 25 µM amounted to 3.88%. As to `CC(Cc1c[nH]c2cc(F)c(F)cc12)NC(=O)CCl` (centres unmarked) [5-I07, 2-chloro-N-[1-(5,6-difluoro-1H-indol-3-yl)propan-2-yl]acetamide], the viability at 48 h, 25 µM came out at 0.657%.

For `CC(C)CC(=O)Nc1ccc(C(=O)CCl)cc1` [10-N06, N-[4-(2-chloroacetyl)phenyl]-3-methylbutanamide], the viability at 48 h, 25 µM was determined as 11.7%. Consider `COc1cc(C=C(C#N)C(=O)NC(C)C)cc(Cl)c1O` [9-K11, 3-(3-chloro-4-hydroxy-5-methoxyphenyl)-2-cyano-N-(propan-2-yl)prop-2-enamide], for which the viability at 48 h, 25 µM came to 115%. Take `C=CC(=O)N(Cc1cn(C)cn1)[C@H]1CCCc2ccc(C)cc21` [1-J11, N-[(1S)-7-methyl-1,2,3,4-tetrahydronaphthalen-1-yl]-N-[(1-methyl-1H-imidazol-4-yl)methyl]prop-2-enamide]: the viability at 48 h, 25 µM was determined as 88.8%.

With `COc1ccc(Cc2cnc(NC(=O)CCl)s2)cc1` [4-F17, 2-chloro-N-{5-[(4-methoxyphenyl)methyl]-1,3-thiazol-2-yl}acetamide], the viability at 48 h, 25 µM is -0.0636%. On to `O=C(CCl)Cc1ccc(Cl)c(Cl)c1` [10-E15, 1-chloro-3-(3,4-dichlorophenyl)propan-2-one], for which the viability at 48 h, 25 µM is 1.56%. With `COc1ccc(C=C(C#N)C(=O)Nc2ccccc2OC)cc1O` [8-J19, 2-cyano-3-(3-hydroxy-4-methoxyphenyl)-N-(2-methoxyphenyl)prop-2-enamide] the figure was 107%; with `COc1ccc(-n2c(C)cc(C=C(C#N)C(=O)N(C)OC)c2C)cc1` [9-N16, 2-cyano-N-methoxy-3-[1-(4-methoxyphenyl)-2,5-dimethyl-1H-pyrrol-3-yl]-N-methylprop-2-enamide], 88.4%; with `O=C(CCl)Nc1ccc2c(c1)oc1ccccc12` [6-A13, 2-chloro-N-{8-oxatricyclo[7.4.0.0,2,7]trideca-1(9),2(7),3,5,10,12-hexaen-5-yl}acetamide], -0.0548%. `N#CC(=Cc1ccccc1)C(=O)NC1CC1` [9-M15, 2-cyano-N-cyclopropyl-3-phenylprop-2-enamide]: the viability at 48 h, 25 µM was determined as 128%. With `C=CC(=O)NCc1ccc(C(=O)N2CCCC2)cc1` [3-O05, N-{[4-(pyrrolidine-1-carbonyl)phenyl]methyl}prop-2-enamide] the figure was 71.6%. Regarding `C=CC(=O)Nc1ccc(OCCC)c(C)c1` [1-C20, N-(3-methyl-4-propoxyphenyl)prop-2-enamide], the viability at 48 h, 25 µM is 80.1%.

Turning to `CN(C1CCCCC1)S(=O)(=O)c1ccccc1NC(=O)CCl` [5-N10, 2-chloro-N-{2-[cyclohexyl(methyl)sulfamoyl]phenyl}acetamide], the viability at 48 h, 25 µM is 0.725%.

Turning to `Cc1cccc(N(Cc2c(C3CC3)cnn2C)C(=O)CCl)c1` [5-D07, 2-chloro-N-[(4-cyclopropyl-1-methyl-1H-pyrazol-5-yl)methyl]-N-(3-methylphenyl)acetamide], the viability at 48 h, 25 µM was found to be 0.857%.

In the case of `C=CC(=O)Nc1ccc(C(=O)N2CCCC2C(=O)NC2CC2)cc1` (centres unmarked) [2-I21, N-cyclopropyl-1-[4-(prop-2-enamido)benzoyl]pyrrolidine-2-carboxamide], the viability at 48 h, 25 µM is 175%. Take `O=C(CCl)NCC1CCCCN1C(=O)C(F)(F)F` (centres unmarked) [5-C07, 2-chloro-N-{[1-(2,2,2-trifluoroacetyl)piperidin-2-yl]methyl}acetamide]: the viability at 48 h, 25 µM is 1.83%. With `C=CC(=O)N(C)CC(=O)N1CCN(c2ccccc2[N+](=O)[O-])CC1` [2-L04, N-methyl-N-{2-[4-(2-nitrophenyl)piperazin-1-yl]-2-oxoethyl}prop-2-enamide], the viability at 48 h, 25 µM came out at 83.6%. For `COc1ccc(C=C(C#N)C(=O)Nc2cccc3c2C(=O)NC3=O)cc1` [8-F13, 2-cyano-N-(1,3-dioxo-2,3-dihydro-1H-isoindol-4-yl)-3-(4-methoxyphenyl)prop-2-enamide], the viability at 48 h, 25 µM was determined as 119%. Turning to `CC(Cl)C(=O)NCc1conc1C1CCC1` (centres unmarked) [5-L21, 2-chloro-N-[(3-cyclobutyl-1,2-oxazol-4-yl)methyl]propanamide], the viability at 48 h, 25 µM was 101%. As to `C=CC(=O)Nc1cc(C)c(CC)cc1OC` [3-O06, N-(4-ethyl-2-methoxy-5-methylphenyl)prop-2-enamide], the viability at 48 h, 25 µM is 82%.

Turning to `N#CC(=Cc1ccsc1)C(=O)Nc1ccc(Cl)cc1` [9-I06, N-(4-chlorophenyl)-2-cyano-3-(thiophen-3-yl)prop-2-enamide], the viability at 48 h, 25 µM amounted to 112%.

With `O=C(CCl)N1CCN(Cc2ccon2)CC1` [5-O04, 2-chloro-1-{4-[(1,2-oxazol-3-yl)methyl]piperazin-1-yl}ethan-1-one], the viability at 48 h, 25 µM is 104%.

For the compound `COCC(NC(=O)C(C)Cl)c1cccc(C#N)c1` (centres unmarked) [6-L19, 2-chloro-N-[1-(3-cyanophenyl)-2-methoxyethyl]propanamide], the viability at 48 h, 25 µM was determined as 107%. For `O=C(CCl)NC1CCCS(=O)(=O)c2ccccc21` (centres unmarked) [6-O19, 2-chloro-N-(1,1-dioxo-2,3,4,5-tetrahydro-1lambda6-benzothiepin-5-yl)acetamide], the viability at 48 h, 25 µM turned out to be 5.88%.

The values are drawn from PMC11995724, “Antibiotic target discovery by integrated phenotypic and activity-based profiling of electrophilic fragments” (Cell chemical biology, 2025).
